{
  "source": "patent US9975896B2",
  "about": "“Inhibitors of transcription factors and uses thereof” (Dana-Farber Cancer Institute, Inc., priority 2013, dated 2018)",
  "key": {"ATAD2A": {"target": "T1, ATAD2A (Homo sapiens, UniProt Q6PL18)", "T1 sequence (Q6PL18 981-1108 limits assumed)": "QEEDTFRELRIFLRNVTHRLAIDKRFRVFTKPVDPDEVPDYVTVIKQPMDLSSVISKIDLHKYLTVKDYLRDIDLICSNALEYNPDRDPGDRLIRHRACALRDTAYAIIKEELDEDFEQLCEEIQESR", "test": "BromoScan selectivity panel (Kd)", "type": "binding"}, "BRD1": {"target": "T2, BRD1 (Homo sapiens, UniProt O95696)", "T2 sequence (O95696 556-688 limits assumed)": "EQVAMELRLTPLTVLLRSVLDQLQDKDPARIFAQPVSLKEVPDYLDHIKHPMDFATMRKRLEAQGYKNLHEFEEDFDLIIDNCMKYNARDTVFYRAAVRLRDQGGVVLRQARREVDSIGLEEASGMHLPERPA", "test": "BromoScan selectivity panel (Kd)", "type": "binding"}, "BRD2(2)": {"target": "T3, BRD2(2) (Homo sapiens, UniProt P25440)", "T3 construct": "the bromodomain-containing protein is BRD2(2)", "T3 sequence (P25440 344-453 limits assumed)": "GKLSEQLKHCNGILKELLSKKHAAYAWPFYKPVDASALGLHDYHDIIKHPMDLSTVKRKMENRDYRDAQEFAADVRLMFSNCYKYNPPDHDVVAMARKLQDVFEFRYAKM", "test": "BromoScan selectivity panel (Kd)", "type": "binding"}, "BRDT(1)": {"target": "T4, BRDT(1) (Homo sapiens, UniProt Q58F21)", "T4 construct": "the bromodomain-containing protein is BRDT(1)", "test": "BromoScan selectivity panel (Kd)", "type": "binding"}, "BRDT(2)": {"target": "BRDT(2) (Homo sapiens, UniProt Q58F21)", "test": "BromoScan selectivity panel (Kd)", "type": "binding"}, "TAF1L(2)": {"target": "T5, TAF1L(2) (Homo sapiens, UniProt Q8IZX4)", "T5 construct": "TAF1L(2)", "T5 sequence (Q8IZX4 1517-1626 limits assumed)": "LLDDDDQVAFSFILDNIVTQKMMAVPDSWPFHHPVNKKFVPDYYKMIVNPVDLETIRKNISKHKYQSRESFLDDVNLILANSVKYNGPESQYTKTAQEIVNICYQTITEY", "test": "BromoScan selectivity panel (Kd)", "type": "binding"}, "TRIM24(PHD Bromo.)": {"target": "T6, TRIM24(PHD Bromo.) (Homo sapiens, UniProt O15164)", "T6 construct": "TRIM24(PHD Bromo.)", "T6 sequence (O15164 824-1006 limits assumed)": "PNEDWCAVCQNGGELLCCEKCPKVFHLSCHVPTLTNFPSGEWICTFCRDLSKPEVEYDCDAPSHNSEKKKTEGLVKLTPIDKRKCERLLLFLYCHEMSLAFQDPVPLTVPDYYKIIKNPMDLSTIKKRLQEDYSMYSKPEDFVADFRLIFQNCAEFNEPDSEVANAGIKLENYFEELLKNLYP", "test": "BromoScan selectivity panel (Kd)", "type": "binding"}, "TRIM33(PHD Bromo.)": {"target": "T7, TRIM33(PHD Bromo.) (Homo sapiens, UniProt Q9UPN9)", "T7 construct": "TRIM33(PHD, Bromo.); TRIM33(PHD Bromo.); fused on or other part: The vendor panel's detection tag or display handle", "T7 sequence (Q9UPN9 1-1127)": "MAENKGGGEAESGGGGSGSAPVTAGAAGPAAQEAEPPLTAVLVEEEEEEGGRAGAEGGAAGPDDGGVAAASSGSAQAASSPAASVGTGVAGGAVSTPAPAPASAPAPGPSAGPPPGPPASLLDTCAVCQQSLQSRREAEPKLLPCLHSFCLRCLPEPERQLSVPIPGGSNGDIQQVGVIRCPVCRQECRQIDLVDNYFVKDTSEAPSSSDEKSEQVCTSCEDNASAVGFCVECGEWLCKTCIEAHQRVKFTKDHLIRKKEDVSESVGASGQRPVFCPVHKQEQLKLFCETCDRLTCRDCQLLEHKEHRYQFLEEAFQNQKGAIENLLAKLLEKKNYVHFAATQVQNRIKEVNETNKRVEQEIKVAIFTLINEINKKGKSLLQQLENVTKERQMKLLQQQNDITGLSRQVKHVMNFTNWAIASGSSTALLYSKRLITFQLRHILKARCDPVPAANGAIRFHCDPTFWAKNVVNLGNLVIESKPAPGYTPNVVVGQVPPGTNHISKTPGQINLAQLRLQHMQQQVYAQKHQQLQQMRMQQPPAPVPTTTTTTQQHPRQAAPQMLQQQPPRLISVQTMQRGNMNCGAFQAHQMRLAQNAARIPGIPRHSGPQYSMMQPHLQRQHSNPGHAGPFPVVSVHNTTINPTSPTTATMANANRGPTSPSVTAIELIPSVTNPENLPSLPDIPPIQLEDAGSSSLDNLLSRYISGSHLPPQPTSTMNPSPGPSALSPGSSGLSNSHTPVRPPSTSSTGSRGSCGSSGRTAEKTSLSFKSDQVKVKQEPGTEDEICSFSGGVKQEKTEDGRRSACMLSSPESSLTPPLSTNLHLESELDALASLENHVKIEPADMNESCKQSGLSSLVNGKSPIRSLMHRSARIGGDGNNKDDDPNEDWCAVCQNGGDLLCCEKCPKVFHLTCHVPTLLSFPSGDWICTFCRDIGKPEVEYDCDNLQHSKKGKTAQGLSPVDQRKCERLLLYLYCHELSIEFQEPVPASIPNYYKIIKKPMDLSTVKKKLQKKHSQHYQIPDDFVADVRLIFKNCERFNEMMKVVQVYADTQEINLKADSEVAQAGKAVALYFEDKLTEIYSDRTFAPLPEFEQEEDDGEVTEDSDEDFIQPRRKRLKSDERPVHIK", "test": "BromoScan selectivity panel (Kd)", "type": "binding"}, "CBP": {"target": "CBP (Homo sapiens, UniProt Q92793)", "sequence (Q92793 1081-1197 limits assumed)": "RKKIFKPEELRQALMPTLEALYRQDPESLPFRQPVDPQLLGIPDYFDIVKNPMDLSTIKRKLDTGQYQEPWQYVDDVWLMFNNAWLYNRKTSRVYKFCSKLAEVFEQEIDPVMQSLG", "test": "BromoScan selectivity panel (Kd)"}, "[1]": {"tested_on": "BRD4-dependent Nut-Midline Carcinoma line 797", "test": "Cell viability (ATPlite) in BRD4 dependant cell line 797", "conditions": "for EC50: Homo sapiens"}, "BRD4": {"target": "BRD4 (Homo sapiens, UniProt O60885)", "test": "In vitro AlphaScreen protein binding assay (competition with biotinylated JQ1)", "conditions": "for IC50: AlphaScreen", "protocol": "Assays were performed with minor modifications from the manufacturer's protocol (PerkinElmer, USA). All reagents were diluted in 50 mM HEPES, 150 mM NaCl, 0.1% w/v BSA, and 0.01% w/v Tween® 20 at pH 7.5 and allowed to equilibrate to room temperature prior to addition to plates. After addition of Alpha beads to master solutions, all subsequent steps were performed in low light conditions. […] After a 1000-rpm spin-down for 1 minute, 100 nL of the solutions of compounds of the invention in DMSO from stock plates were added by pin transfer using a Janus Workstation (PerkinElmer, USA). The streptavidin-coated donor beads (25 μg/ml final) were added as with previous solution in a 2×, 10 μL volume. Following this addition, the plates were sealed with foil to block light exposure and to prevent evaporation. The plates were spun down again at 1000 rpm for 1 minute. Next, the plates were incubated in the room with the plate reader (for temperature equilibration) for 1 hour prior to reading the assay. Signal is stable for up to 3 hours after donor bead addition."}},
  "note": "Read-outs that look alike come from different tables or passages of the source.",
  "data": [
    {"smiles": "Cc1noc(C)c1-c1ccc(-c2nc3cnccn3c2NC(C)(C)C)cc1", "note": "[UMB32, N-(tert-butyl)-2-(4-(3,5-dimethylisoxazol-4-yl)phenyl)imidazo[1,2-a]pyrazin-3-amine]", "values": [
      {"measurement": "Kd", "setting": "ATAD2A; Table 8, read-out: Kd (nM) ATAD2A", "value": "≥ 40000", "unit": "nM"},
      {"measurement": "Kd", "setting": "ATAD2A; Table 9, read-out: BromoScan Kd, nM ATAD2A", "value": "≥ 40000", "unit": "nM"},
      {"measurement": "Kd", "setting": "BRD1; Table 8, read-out: Kd (nM) BRD1", "value": "≥ 40000", "unit": "nM"},
      {"measurement": "Kd", "setting": "BRD1; Table 9, read-out: BromoScan Kd, nM BRD1", "value": "≥ 40000", "unit": "nM"},
      {"measurement": "Kd", "setting": "BRD2(2); Table 8, read-out: Kd (nM) BRD2(2)", "value": 95, "unit": "nM"},
      {"measurement": "Kd", "setting": "BRD2(2); Table 9, read-out: BromoScan Kd, nM BRD2(2)", "value": 95, "unit": "nM"},
      {"measurement": "Kd", "setting": "BRDT(1); Table 8, read-out: Kd (nM) BRDT(1)", "value": 110, "unit": "nM"},
      {"measurement": "Kd", "setting": "BRDT(1); Table 9, read-out: BromoScan Kd, nM BRDT(1)", "value": 110, "unit": "nM"},
      {"measurement": "Kd", "setting": "BRDT(2); Table 8, read-out: Kd (nM) BRDT(2)", "value": 75, "unit": "nM"},
      {"measurement": "Kd", "setting": "BRDT(2); Table 9, read-out: BromoScan Kd, nM BRDT(2)", "value": 75, "unit": "nM"},
      {"measurement": "Kd", "setting": "TAF1L(2); Table 8, read-out: Kd (nM) TAF1L(2)", "value": 1300, "unit": "nM"},
      {"measurement": "Kd", "setting": "TAF1L(2); Table 9, read-out: BromoScan Kd, nM TAF1L(2)", "value": 1300, "unit": "nM"},
      {"measurement": "Kd", "setting": "TRIM24(PHD Bromo.); Table 8, read-out: Kd (nM) TRIM24(PHD Bromo.)", "value": "≥ 40000", "unit": "nM"},
      {"measurement": "Kd", "setting": "TRIM24(PHD Bromo.); Table 9, read-out: BromoScan Kd, nM TRIM24(PHD, Bromo.)", "value": "≥ 40000", "unit": "nM"},
      {"measurement": "Kd", "setting": "TRIM33(PHD Bromo.); Table 8, read-out: Kd (nM) TRIM33(PHD Bromo.)", "value": "≥ 40000", "unit": "nM"},
      {"measurement": "Kd", "setting": "TRIM33(PHD Bromo.); Table 9, read-out: BromoScan Kd, nM TRIM33(PHD, Bromo.)", "value": "≥ 40000", "unit": "nM"},
      {"measurement": "Kd", "setting": "CBP; read-out: BromoScan Kd, nM CREBBP, Table 9", "value": 4500, "unit": "nM"},
      {"measurement": "Kd", "setting": "CBP; read-out: Kd (nM) CBP, Table 8", "value": 4500, "unit": "nM"},
      {"measurement": "EC50", "setting": "[1]", "value": 1.13, "unit": "µM"},
      {"measurement": "EC50", "setting": "[1]; read-out: 797--EC50 (μM)", "value": 0.724, "unit": "µM"},
      {"measurement": "EC50", "setting": "[1]; read-out: BRD4 EC50 (μM)", "value": 1.1, "unit": "µM"},
      {"measurement": "cellular activity in the BRD4 dependant cell line", "setting": "[1]; text b618, b620", "value": "shows cellular activity in the BRD4 dependant cell line"},
      {"measurement": "IC50", "setting": "BRD4; BRD4 IC50 (μM), Table 3", "value": 0.26, "unit": "µM"},
      {"measurement": "IC50", "setting": "BRD4; IC50 (M), Table 1, in vitro, inhibiting the activity of BRD4", "value": 0.256, "unit": "µM"},
      {"measurement": "inhibition of the activity of BRD4 in vitro", "setting": "BRD4; text b614, b618", "value": "active in inhibiting the activity of BRD4 in vitro"}
    ]}
  ]
}
